From patent US20090011025A1, “Biotin-Amino Acid Conjugate Useful as a Hydrogelator and Hydrogel Prepared Therefrom” (POSTECH FOUNDATION, priority 2005, published 2009)

How the values were obtained:
[1] = Gelation capability of gelators, stable-to-inversion of container method (minimum gelation concentration, gel stability and clarity); type: physicochemical; parameters: key to minimum gelation concentration (MGC): —: no gel formed; conditions: for stability of gel (time the gel persisted): in each medium; for stability of gel (time the gel lasted): aqueous media
Method: In order to examine the gelation capability of gelators 1 to 11, the degrees of gelation in various aqueous media were measured as follows, in accordance with the “stable-to-inversion of container” method (Menger, F. M. and Caran, K. L., J. Am. Chem. Soc. 2000, 122, 11679).
Specifically, 0.002 to 0.04 g of each gelator and 1 ml of an aqueous medium (distilled water, 0.9% aqueous NaCl solution, 0.01 M hydrochloric buffer (pH 2.0), 0.05 M phthalate buffer (pH 4.0), 0.08 M MOPSO buffer (pH 7.0) or 0.025 M sodium tetraborate buffer (pH 9.0)) were put into a sealed glass tube (5 mm i.d.), and the mixture was heated at 100° C. until a solution was obtained. The tube was then maintained at room temperature for 5 to 10 min.
Then, the minimum gelation concentration (MGC, wt %), i.e., the lowest concentration of a gelator at which it forms a hydrogel, of each gelator compound was determined, and the result is shown in Table 1.

[2] = Textures of the hydrogels/xerogels by scanning electron microscopy (SEM); type: physicochemical; conditions: gel at MGC in distilled water, freeze-dried
Method: The textures of the hydrogels formed by the gelators prepared in the Examples were examined as follows, employing a scanning electron microscopy (SEM).
First, gelators 1 to 11 were each dissolved in 1 ml of distilled water in an amount ranging from 0.003 to 0.02 g to reach the corresponding MGC listed in Table 1, and the mixture was heated at 100° C. to form a hydrogel. The hydrogel was frozen at −78° C., and freeze-dried for 6 hours to obtain a xerogel.

[3] = target: streptavidin (Streptomyces avidinii, UniProt P22629); assay: Influence of ligand-receptor interaction (streptavidin) on the gel state of a hydrogel, SEM; conditions: 0.002 equivalent of streptavidin, after 1 hour
Method: The influence of ligand-receptor interaction on the gel state of hydrogels was examined as follows.
0.002 g of gelator 9 was added to 1 ml of distilled water, and the mixture was heated at 100° C. to form a hydrogel.

[4] = cited from earlier work
[5] = pH 2 (0.01 M hydrochloric buffer)
[6] = pH 9 (0.025 M sodium tetraborate buffer)

| Compound | minimum gelation concentration (MGC) ([1]; H2O/0.9% NaCl (aq.)) | minimum gelation concentration (MGC) [1, 5] | minimum gelation concentration (MGC) ([1]; pH 4 (0.05 M phthalate buffer)) | minimum gelation concentration (MGC) ([1]; pH 7 (0.08 M MOPSO buffer)) | minimum gelation concentration (MGC) [1, 6] | melting point [°C] | clarity of gel [1] | structure type of hydrogel (xerogel SEM image) [2] | stability of gel (time the gel lasted) [1] | stability of gel (time the gel persisted) [1] | molecules of water immobilized by one molecule of gelator ([1]; at MGC in distilled water) | gel state after addition of streptavidin [3] | solubility in organic solvents ([4]; organic solvents) | solubility in water ([4]; water) |
| --- | --- | --- | --- | --- | --- | --- | --- | --- | --- | --- | --- | --- | --- | --- |
| O=C(CCCC[C@@H]1SC[C@@H]2NC(=O)N[C@@H]21)N[C@@H](Cc1ccccc1)C(=O)O [Gelator 1, N-biotinyl-L-phenylalanine] | 2.0 wt % | 1.5 wt % | 2.0 wt % | 3.0 wt % | 4.0 wt % | 205 | translucent to opaque | fibrous structures |  | about 6 months |  |  |  |  |
| CC(C)C[C@H](NC(=O)CCCC[C@@H]1SC[C@@H]2NC(=O)N[C@@H]21)C(=O)O [Gelator 2, N-biotinyl-L-leucine] | 1.6 wt % | 1.4 wt % | 1.8 wt % | 2.8 wt % | 3.6 wt % | 209 to 210 | translucent to opaque | fibrous structures |  | about 6 months |  |  |  |  |
| CSCC[C@H](NC(=O)CCCC[C@@H]1SC[C@@H]2NC(=O)N[C@@H]21)C(=O)O [Gelator 3, N-biotinyl-L-methionine] | 1.8 wt % | — | — | — | — | 207 |  |  |  |  |  |  |  |  |
| CC[C@H](C)[C@H](NC(=O)CCCC[C@@H]1SC[C@@H]2NC(=O)N[C@@H]21)C(=O)O [Gelator 4, N-biotinyl-L-isoleucine] | 1.2 wt % | 1.0 wt % | 1.2 wt % | 2.7 wt % | 3.9 wt % | 230 to 233 | opaque | lamellar structures | about 1 week |  |  |  |  |  |
| CC(C)[C@H](NC(=O)CCCC[C@@H]1SC[C@@H]2NC(=O)N[C@@H]21)C(=O)O [Gelator 5, N-biotinyl-L-valine] | 1.4 wt % | 1.0 wt % | 1.4 wt % | 2.7 wt % | 4.0 wt % | 215 to 216 | opaque | lamellar structures | about 1 week |  |  |  |  |  |
| CCCC[C@H](NC(=O)CCCC[C@@H]1SC[C@@H]2NC(=O)N[C@@H]21)C(=O)O [Gelator 9, N-biotinyl-L-norleucine] | 0.3 wt % | 0.2 wt % | 0.5 wt % | 1.2 wt % | 1.5 wt % | 172 |  |  |  |  | 6,700 molecules of water | disrupted |  |  |
| O=C(O)CCCC[C@@H]1SC[C@@H]2NC(=O)N[C@@H]21 [biotin] |  |  |  |  |  |  |  |  |  |  |  |  | insolubility | 1.0-0.8 mmol/L |

Now from value to molecule, other results behind:

| minimum gelation concentration (MGC) ([1]; H2O/0.9% NaCl (aq.)) | minimum gelation concentration (MGC) [1, 5] | minimum gelation concentration (MGC) ([1]; pH 4 (0.05 M phthalate buffer)) | minimum gelation concentration (MGC) ([1]; pH 7 (0.08 M MOPSO buffer)) | minimum gelation concentration (MGC) [1, 6] | melting point [°C] | clarity of gel [1] | structure type of hydrogel (xerogel SEM image) [2] | stability of gel (time the gel lasted) [1] | Compound | stability of gel (time the gel persisted) [1] | molecules of water immobilized by one molecule of gelator ([1]; at MGC in distilled water) | gel state after addition of streptavidin [3] | solubility in organic solvents ([4]; organic solvents) | solubility in water ([4]; water) |
| --- | --- | --- | --- | --- | --- | --- | --- | --- | --- | --- | --- | --- | --- | --- |
| 0.6 wt % | 0.8 wt % | 0.8 wt % | 1.7 wt % | 3.5 wt % | 198.5 |  |  |  | CCCCCCC(NC(=O)CCCC[C@@H]1SC[C@@H]2NC(=O)N[C@@H]21)C(=O)O (mixture of isomers) [Gelator 11, N-biotinyl-D,L-2-aminocaprylic acid] |  |  |  |  |  |
| — | — | — | — | — | 259 to 260 |  |  |  | O=C(CCCC[C@@H]1SC[C@@H]2NC(=O)N[C@@H]21)N[C@@H](Cc1ccc(O)cc1)C(=O)O [Gelator 6, N-biotinyl-L-tyrosine] |  |  |  |  |  |
| — | — | — | — | — | 160 to 161 |  |  |  | O=C(CCCC[C@@H]1SC[C@@H]2NC(=O)N[C@@H]21)N[C@@H](Cc1c[nH]c2ccccc12)C(=O)O [Gelator 7, N-biotinyl-L-tryptophan] |  |  |  |  |  |
| 1.2 wt % | 0.9 wt % | 1.2 wt % | 2.5 wt % | 3.8 wt % | 255 | opaque | lamellar structures | about 1 week | CCC[C@H](NC(=O)CCCC[C@@H]1SC[C@@H]2NC(=O)N[C@@H]21)C(=O)O [Gelator 8, N-biotinyl-L-norvaline] |  |  |  |  |  |
| 0.8 wt % | 0.6 wt % | 1.0 wt % | 2.0 wt % | 4.0 wt % |  |  |  |  | CCCCCC(NC(=O)CCCC[C@@H]1SC[C@@H]2NC(=O)N[C@@H]21)C(=O)O (stereo partly drawn) [Gelator 10, N-biotinyl-D,L-2-aminoenantic acid] |  |  |  |  |  |
